Results as given in patent publication US20240226131A1, “2'-CHLORO-2'-FLUORO-N2-AMINO-N6-M[…] NUCLEOTIDES FOR […]” (priority 2021, published 2024).

Tests used:
in vitro = conditions: human
[1] = test system: Yellow Fever virus (YFV 17D); assay: microbe, parasite or virus in culture; format: cell-based; conditions: Huh-7, 120 h, read-out: EC50 (concentration required to prevent virus-induced CPE by 50%)
[2] = test system: West Nile virus (WN02 Kern 515); assay: microbe, parasite or virus in culture; format: cell-based; conditions: Huh-7, 144 h, read-out: EC50 (concentration required to prevent virus-induced CPE by 50%)
[3] = test system: Dengue virus (DENV-2), New Guinea C; assay: microbe, parasite or virus in culture; format: cell-based; conditions: DENV2, Huh-7, 144 h, read-out: EC50 (concentration required to prevent virus-induced CPE by 50%)

## CNc1nc(N)nc2c1ncn2[C@@H]1O[C@H](CO[P@@](=O)(N[C@@H](C)C(=O)OC(C)C)Oc2ccccc2)[C@@H](O)[C@]1(F)Cl [Compound 8, (S)-Isopropyl-2-(((S)-(((2R,3R,4S,5R)-5-(2-amino-6-(methylamino)-9H-purin-9-yl)-4-chloro-4-fluoro-3-hydroxytetrahydrofuran-2-yl)methoxy)(phenoxy)phosphoryl)amino) propanoate]
In vitro
  CC50: > 100000 nM
[1]
  EC50: 120 nM
[2]
  EC50: 320 nM
[3]
  EC50: 320 nM
